# Source: patent publication US6841682B2, “Heterocycles useful in the treatment of benign prostatic hyperplasia” (Janseen Pharmaceutica N.V., priority 1997, dated 2005)
# pIC50: −log10 of the molar value.
# Experiments:
# α1a-AR = biological target: T1, α1a-AR (Homo sapiens, UniProt P35348); experiment: radioligand ([125I]-HEAT) receptor binding assay, COS cell membranes, α1a-AR; details: Tables A-J; [125I]-HEAT 50 pM, COS membranes; read-out: α1a IC50
# T1 construct: expressed in transfected cells; host or cells: COS cells (pcDNA3 vector, DEAE-dextran transient transfection); membrane preparation
# T1 sequence (P35348 1-466): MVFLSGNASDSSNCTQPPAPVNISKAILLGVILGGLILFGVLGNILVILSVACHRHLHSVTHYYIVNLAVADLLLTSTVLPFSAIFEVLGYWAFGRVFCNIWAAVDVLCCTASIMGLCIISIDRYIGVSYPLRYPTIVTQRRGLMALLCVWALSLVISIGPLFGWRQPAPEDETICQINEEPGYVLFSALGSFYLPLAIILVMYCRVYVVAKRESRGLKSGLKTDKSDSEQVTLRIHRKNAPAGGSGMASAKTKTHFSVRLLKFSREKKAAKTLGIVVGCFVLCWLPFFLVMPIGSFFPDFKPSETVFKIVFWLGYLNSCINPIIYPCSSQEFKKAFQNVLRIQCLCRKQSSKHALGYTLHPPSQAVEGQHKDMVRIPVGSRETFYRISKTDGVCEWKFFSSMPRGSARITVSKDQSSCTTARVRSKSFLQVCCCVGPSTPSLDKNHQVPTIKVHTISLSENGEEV
# Description: The first assay tested the ability of compounds of Formula I to bind to membrane bound receptors α1a-AR, α1b-AR and α1d-AR.
# The DNA sequences of the three cloned human α1-AR subtypes have been published. […] We used published DNA sequence information to design-primers for use in RT-PCR amplification of each subtype to obtain cloned cDNAs. Human poly A+ RNA was obtained from commercially available sources and included hippocampus and prostate samples, sources which have been cited in the literature. For the primary screen a radio ligand binding assay was used which employed membrane preparations from cells expressing the individual cloned receptor cDNAs.
# Each α1 receptor subtype was cloned from poly A+ RNA by the standard method of reverse transcription-polymerase chain reaction (RT-PCR). The following sources of polyA+ RNA were used for the cloning of the al receptor subtypes: α1a-AR, human hippocampus and prostate, α1b-AR, human hippocampus, α1d-AR, human hippocampus. The resulting cDNAs were cloned into the pcDNA3 mammalian expression vector (Invitrogen Corp., San Diego Calif.). Each DNA was sequenced for verification and to detect any possible mutations introduced during the amplification process. Any deviation in sequence from the published consensus for each receptor subtype was corrected by site-directed mutagenesis.
# The three α1-AR subtypes (a, b, d) were transfected into COS cells using a standard DEAE-dextran procedure with a chloroquine shock. In this procedure, each tissue culture dish (100 mm) was inoculated with 3.5×10^6 cells and transfected with 10 μg of DNA. Approximately 72 hours post-transfection, the cells were harvested and COS membranes were prepared. Transfected COS cells from 25 plates (100 mm) were scraped and suspended in 15 mL of TE buffer (50 mM Tris-HCl, 5 mM EDTA, pH7.4). The suspension was disrupted with a homogenizer. It was then centrifuged at 1000×g for 10 minutes at 4° C. The supernatant was centrifuged at 34,500×g for 20 minutes at 4° C. The pellet was resuspended in 5 mL TNE buffer (50 mM Tris-HCl, 5 mM EDTA, 150 mM NaCl, pH7.4). The resulting membrane preparation was aliquoted and stored at −70° C. The protein concentration was determined following membrane solubilization with TritonX-100.
# The ability of each compound to bind to each of the α1-AR subtypes was assessed in a receptor binding assay. […] The plate was incubated for 1 hour at room temperature and the reaction mixtures were filtered through a Packard GF/C Unifilter filter plate. The filter plate was dried for 1 hour in a vacuum oven. Scintillation fluid ([…]) was added to each well, and the filter plate was counted in a Packard Topcount scintillation counter. Data was analyzed using GraphPad Prism software.
# rat aorta tissues = experiment: norepinephrine-induced contractile response of rat aorta tissue; format: tissue-based; details: rat aortic rings, 37° C., pH 7.4, read-out: IC50, inhibition of contractile response in aortic tissue
# Description: (§1) The contractile responses of rat prostatic tissue and rat aorta tissues were examined in the presence and absence of antagonist compounds. As an indication of the selectivity of antagonism, test compound effects on vascular smooth muscle contractility (α1b-AR and α1d-AR) were compared to the effects on prostatic smooth muscle (α1a-AR). Strips of prostatic tissue and aortic rings were obtained from Long Evans derived male rats weighing 275 grams and sacrificed by cervical dislocation. The prostate tissue was placed under 1 gram tension in a 10 ml bath containing phosphate buffered saline pH 7.4 at 32° C. and isometric tension was measured with force transducers. The aortic tissue was placed under 2 grams tension in a 10 ml bath containing phosphate buffered saline pH 7.4 at 37° C. The ability of test compound to reduce the norepinephrine-induced contractile response by 50% (IC50) was determined.
# rat prostatic tissue = experiment: norepinephrine-induced contractile response of rat prostatic tissue; format: cell-based; details: rat prostate strips, 32° C., pH 7.4, read-out: IC50, inhibition of contractile response in prostate tissue
# Description: as §1
pIC50 (α1a-AR),pIC50 (rat aorta tissues),pIC50 (rat prostatic tissue),SMILES
8.68,4.50,5.89,CC(C)Oc1ccccc1N1CCN(Cc2cc(CN3CCCCC3=O)n[nH]2)CC1 [Compound 3]
8.73,4.87,6.42,CC(C)Oc1ccccc1N1CCN(Cc2ncc(CN3CCCCC3=O)s2)CC1 [Compound 16]
